# Target: T1, mutant integrin CD11bE320A/CD18 (Homo sapiens, UniProt P11215, E336A)
# T1 construct: expressed in transfected cells; host or cells: K562 (ATCC)
# Assay: HTS cell adhesion assay, K562 E320A cells on immobilized fibrinogen
# Type: cell-based
# Details: Table 3, adhesion to fibrinogen, five point dose-response
# Description: K562 cells stably expressing CD11c/CD18 (K562 CD11c/CD18) were generated similarly. […] K562 cells stably transfected with mutant integrin CD11bE320A/CD18 (K562 E320A) were generated according to literature protocols. All cell lines were maintained in Iscove's Modified Dulbecco's Medium (IMDM) supplemented with 10% heat-inactivated fetal bovine serum, 50 IU/mL penicillin and streptomycin and 0.5 mg/mL G418.
# Cell adhesion assays with immobilized ligands were performed using the general protocol previously described and as illustrated in FIG. 1 [33]. Assays with all different K562 cell lines (K562, K562 CD11b/CD18, K562 CD11c/CD18 and K562 E320A) were performed in an identical fashion. Briefly, 384-well microplates (Corning 3700) were coated with 15 μg/mL fibrinogen (Fg) ligand in PBS^++ overnight at 4° C. At the same time, anti-CD18 (IB4) mAb was also coated. Subsequently, the coated wells were washed with 1% nonfat milk in TBS at room temperature for 1 hour. Next, the wells were washed 3 times with TBS, and the coated microplates were used in the HTS assays.
# K562 CD11b/CD18, K562 CD11bE320A/CD18 and K562 CD11c/CD18 cells were washed with TBS, and cells were transferred to the Fg-coated wells of microplates in the assay buffer (Ca^2+ and Mg^2+ for physiological condition, Mn^2+ as the Positive control). A 1 μL aliquot of the compounds were transferred to each washed well with multichannel pipet from the 384-well plates.
# The assay plates were incubated at 37° C. in the presence of small-molecule compounds for 30 min. To dislodge the non-adherent cell, the assay plates were gently inverted and kept in inverted position for 20 min at room temperature.
# The cells were fixed with 37% formaldehyde in a small volume and the plates were kept inverted for 1 h. Upon the fixation, the solutions in the well were discarded. Next, the cells were fluorescently labeled with DAPI (0.5 μM final in TBS with 0.1% Triton X-100) and the quantitated with “Opera High Content Screening System” (Perkin Elmer).
# Cell-adhesion under positive and negative control conditions was used to define the activity scale; signal corresponding to the number of non-small molecule treated cells adherent in activating buffer condition (in the presence of Mn^2+ ions as agonist, PC) was considered maximum (100% binding) and the signal corresponding to the number of non-small molecule treated cells adherent in basal buffer condition (in the presence of 1 mM each of Ca^2+ and Mg^2+, NC) was considered minimum (0% binding).
# T1 sequence (P11215 17-1152 E336A): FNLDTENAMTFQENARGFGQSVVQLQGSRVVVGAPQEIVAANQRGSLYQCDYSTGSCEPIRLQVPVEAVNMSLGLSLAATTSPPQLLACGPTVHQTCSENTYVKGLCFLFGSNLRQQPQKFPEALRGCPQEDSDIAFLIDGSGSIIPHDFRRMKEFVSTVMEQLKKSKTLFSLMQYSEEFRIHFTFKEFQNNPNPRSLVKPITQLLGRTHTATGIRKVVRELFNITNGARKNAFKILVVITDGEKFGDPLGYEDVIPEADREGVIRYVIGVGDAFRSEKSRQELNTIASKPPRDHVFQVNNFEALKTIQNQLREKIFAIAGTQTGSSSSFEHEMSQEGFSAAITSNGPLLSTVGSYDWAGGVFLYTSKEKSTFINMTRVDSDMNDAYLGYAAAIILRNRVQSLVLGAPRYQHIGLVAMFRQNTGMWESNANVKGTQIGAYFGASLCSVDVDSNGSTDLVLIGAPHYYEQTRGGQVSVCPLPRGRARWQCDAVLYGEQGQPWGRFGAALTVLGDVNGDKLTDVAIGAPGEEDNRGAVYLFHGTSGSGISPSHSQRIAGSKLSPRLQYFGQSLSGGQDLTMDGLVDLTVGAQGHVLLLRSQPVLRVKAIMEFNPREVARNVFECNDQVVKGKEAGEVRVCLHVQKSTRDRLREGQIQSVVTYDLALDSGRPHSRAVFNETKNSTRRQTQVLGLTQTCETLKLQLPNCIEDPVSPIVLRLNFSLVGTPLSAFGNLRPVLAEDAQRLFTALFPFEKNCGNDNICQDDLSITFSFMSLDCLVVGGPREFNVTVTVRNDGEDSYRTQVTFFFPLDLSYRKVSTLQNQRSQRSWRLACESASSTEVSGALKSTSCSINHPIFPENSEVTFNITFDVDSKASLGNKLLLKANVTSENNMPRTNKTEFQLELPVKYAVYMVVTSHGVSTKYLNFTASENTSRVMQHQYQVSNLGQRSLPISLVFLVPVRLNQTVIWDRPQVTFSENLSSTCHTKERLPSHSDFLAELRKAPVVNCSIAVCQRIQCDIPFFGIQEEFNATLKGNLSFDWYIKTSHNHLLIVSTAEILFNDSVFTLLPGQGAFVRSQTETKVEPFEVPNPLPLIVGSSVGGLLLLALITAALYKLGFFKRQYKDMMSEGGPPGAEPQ
# T1 sequence (P05107 23-769 partner): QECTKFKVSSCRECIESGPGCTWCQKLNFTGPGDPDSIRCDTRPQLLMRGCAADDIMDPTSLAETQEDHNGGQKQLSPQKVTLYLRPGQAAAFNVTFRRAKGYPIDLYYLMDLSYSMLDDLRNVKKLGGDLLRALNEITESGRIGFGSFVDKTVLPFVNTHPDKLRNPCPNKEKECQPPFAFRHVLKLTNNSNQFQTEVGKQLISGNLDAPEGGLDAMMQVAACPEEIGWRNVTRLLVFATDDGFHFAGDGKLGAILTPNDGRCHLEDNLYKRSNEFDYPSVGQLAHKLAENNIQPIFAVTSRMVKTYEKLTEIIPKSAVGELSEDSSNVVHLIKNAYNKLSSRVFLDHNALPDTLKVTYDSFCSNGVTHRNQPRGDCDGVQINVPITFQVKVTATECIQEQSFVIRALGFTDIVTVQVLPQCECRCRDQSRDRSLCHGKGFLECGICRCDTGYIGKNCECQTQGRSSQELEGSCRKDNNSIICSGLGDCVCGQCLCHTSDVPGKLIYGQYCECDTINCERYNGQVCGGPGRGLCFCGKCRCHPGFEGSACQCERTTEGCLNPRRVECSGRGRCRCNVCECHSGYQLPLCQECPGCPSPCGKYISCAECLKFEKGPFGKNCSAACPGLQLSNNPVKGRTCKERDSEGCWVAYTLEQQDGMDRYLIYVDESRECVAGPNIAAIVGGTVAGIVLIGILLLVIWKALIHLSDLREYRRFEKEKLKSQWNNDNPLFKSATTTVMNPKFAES
EC50 [µM],EC50 E320A,Compound
0.441,,COc1cc2c(cc1NC(=O)c1cc(-c3ccncc3)nc3ccccc13)oc1ccccc12 [Compound 2098333]
7.57,,CC(C)CCn1c(SCC(=O)N2CC(=O)Nc3ccccc32)nc2scc(-c3cccs3)c2c1=O [Compound 2566842]
9.23,,O=C(CNS(=O)(=O)c1cccc(Cl)c1)Nc1ccc(-c2nc3ccccc3s2)cc1 [Compound 984329]
7.04,,O=c1nc2s/c(=C\c3ccco3)c(=O)n2nc1Cc1ccc(F)cc1 [Compound 1844411]
8.98,,COc1ccc(C2C(C(C)=O)=C(C)N=c3s/c(=C/c4ccc5c(c4)OCO5)c(=O)n32)cc1 (centres unmarked) [Compound 5287341]
17.5,,COc1cccc2cc(/C(C)=N/Nc3nc(-c4cc(C)ccc4C)cs3)c(=O)oc12 [Compound 9594695]
7.03,,COc1ccc(/C=c2\sc3nc(-c4ccccc4OC)nn3c2=O)c(OC)c1 [Compound 1827856]
12.1,,O=C(CSc1nc2sc3c(c2c(=O)n1-c1ccccc1)CCCC3)NCc1ccco1 [Compound 1322134]
9.93,,CCOC(=O)N1CCC(NC(=O)c2cccc3c2C(=O)N(c2ccc(OC)cc2)C3)CC1 [Compound 5307705]
12.2,,CCCCn1c(=O)[nH]c(=O)c2c1nc(-c1ccc(-c3ccccc3Br)o1)n2CCOC [Compound 3908086]
20.4,,COc1ccc(-n2c(SCC(=O)Nc3nccs3)nc3sc4c(c3c2=O)CCN(C)C4)cc1 [Compound 664564]
19.1,,O=C(CSc1nc2ccccc2c2nc3ccccc3n12)NCc1ccco1 [Compound 3238872]
15.4,,Cc1ccc(/C=C2\SC(=S)N(CC(=O)Nc3ncc(Cc4ccccc4Cl)s3)C2=O)cc1 [Compound 1871747]
15.7,,COc1ccc(OC)c(NS(=O)(=O)Cc2ccccc2)c1 [Compound 743624]
8.42,,Cc1sc2nc(CSc3nc4ccccc4c(=O)n3CCCN3CCOCC3)[nH]c(=O)c2c1C [Compound 2566737]
26.1,,COc1ccc2c(c1)c1nc3ccccc3nc1n2Cc1ccc(OC)c(OC)c1 [Compound 2023256]
11.3,,Cc1nc2c(c(=O)n1CCC1=CCCCC1)c1nc3ccccc3nc1n2/N=C/c1ccco1 [Compound 6880170]

EC50 [µM],EC50 E320A,Compound
9.42,,COc1ccc2c(c1)cc(C)c1nnc(SCC(=O)N(C)c3nc(-c4ccccc4)cs3)n12 [Compound 1135734]
7.74,,CCCSc1nnc(NC(=O)c2sc3nc(-c4cccs4)ccc3c2N)s1 [Compound 1773030]
28.3,,Cc1cc(C=C2C(=O)CCCC2=O)c(C)n1-c1ccccc1 [Compound 2313216]
7.82,,O=C1NN(c2ccc(Cl)c(Cl)c2)C(=O)/C1=C/c1cccc(OC(=O)c2cccs2)c1 [Compound 1016780]
8.25,,Cc1oc(-c2ccc(Cl)cc2)cc1-c1nn2c(-c3ccoc3C)nnc2s1 [Compound 2145570]
7.85,,CN(CCC#N)C(=O)COC(=O)c1c2c(nc3ccccc13)/C(=C/c1ccco1)CC2 [Compound 5801934]
19.3,,Cc1ccc(-c2cc(C(=O)N/N=C/C=C/c3ccco3)c3ccccc3n2)cc1C [Compound 1764811]
13.4,,CC1=NN(c2nc(-c3ccc(C)cc3)cs2)C(=O)C1N=Nc1ccc2ccccc2c1 (centres unmarked) [Compound 3101589]
11.4,,COc1ccccc1N1CSC2=C(C#N)C(c3ccc(SC)cc3)CC(=O)N2C1 (centres unmarked) [Compound 3160888]
0.315,,Nc1c(C(=O)Nc2cccc(Cl)c2Cl)sc2nc(-c3cccnc3)ccc12 [Compound 1976060]
,Very Low,COc1cc(/C=C2/SC(=S)N(c3ccccc3)C2=O)ccc1Oc1nc(N2CCOCC2)nc(N2CCOCC2)n1 [Compound 5343920]
8.76,,COc1cccc2sc(Nc3nc(-c4cc5ccccc5oc4=O)cs3)nc12 [Compound 7109922]
8.84,,O=C(NCCN1C(=O)S/C(=C\c2ccccc2)C1=O)c1cc(S(=O)(=O)N2CCOCC2)c(Cl)cc1Cl [Compound 5774232]
8.59,,Cc1csc(NC(=O)c2cc(-c3ccco3)nc3ccccc23)n1 [Compound 2366866]
7.82,,Cc1nn2c(-c3cccc(NC(=O)CSc4nc5ccccc5o4)c3)nnc2c2ccccc12 [Compound 1290769]
7.33,,COc1cccc(OCc2cc(/C=N/NC(=O)c3nc(Cl)c(Cl)c(N)c3Cl)ccc2OC)c1 [Compound 6881723]
18.5,,C=CCOC(=O)C(C#N)c1nc2ccccc2nc1N1CCN(Cc2ccc3c(c2)OCO3)CC1 (centres unmarked) [Compound 660507]

# Continued, molecule first:
Compound,EC50 [µM],EC50 E320A
Cc1cc(C=C2C(=O)N(C)C(=S)N(C)C2=O)c(C)n1C1CCCCC1 [Compound 1347165],171,
O=C(N/N=C\C=C\c1ccco1)c1cc(-c2ccc3ccccc3c2)[nH]n1 [Compound 6030986],8.1,
Cc1cc(C)cc(NC(=O)Cn2c(=O)oc3cc(S(=O)(=O)N4CCC(C)CC4)ccc32)c1 [Compound 9551541],8.23,
O=C(Nc1ccc(Cl)cc1)[C@@H]1[C@@H]2C(=O)N(c3ccc(Cl)cc3Cl)C(=O)[C@@H]2[C@H]2C=CC=NN21 [Compound 9551824],22.3,
Cc1csc(NC(=O)CSc2nc3sc(C)c(C)c3c(=O)[nH]2)n1 [Compound 650604],9.43,
O=C(NCC1OCCc2ccccc21)c1ccc(NC(=O)c2ccc(Cl)cc2)cc1 (centres unmarked) [Compound 5212443],13,
Cc1cc(C)cc(-n2c3nc4ccccc4nc3c3c(=O)n(Cc4ccco4)cnc32)c1 [Compound 660761],8.8,
CCOC(=O)C(Cc1ccccc1)C(=O)Nc1ccc(NC(=O)C(Cc2ccccc2)C(=O)OCC)cc1 (centres unmarked) [Compound 2836867],121,
O=C(Cn1c2ccccc2c(=O)c2ccccc21)N/N=C/c1ccc(N2CCCC2)c([N+](=O)[O-])c1 [Compound 5347156],13.7,
O=C(Cn1c2ccccc2c(=O)c2cc([N+](=O)[O-])ccc21)Nc1ccccc1Cl [Compound 15944880],10.1,
NC(=S)N/N=C/c1coc2cc(Cl)ccc2c1=O [Compound 6879466],171,
Cc1ccc(CN2C(=O)C3CCCN3c3ccc(S(=O)(=O)N4CCOCC4)cc32)cc1 (centres unmarked) [Compound 2766156],10.7,
CCc1nc(SCC(=O)Nc2nnc(CC)s2)c2c(C)c(C)sc2n1 [Compound 3197508],8.48,
N#Cc1c(-c2ccccc2)cc(-c2ccco2)c(C#N)c1N [Compound 625239],7.74,
O=C(/C=C/c1ccco1)c1ccc(NC(=O)C23CC4CC(CC(C4)C2)C3)cc1 [Compound 7424594],10.3,
O=C(CN1CCc2ccccc21)Nc1ccc2c(c1)OCO2 [Compound 2064203],8.97,

Compound,EC50 [µM],EC50 E320A
CC1CCN(Cc2ccc(NC(=O)C3CCN(c4nnc(-n5cccc5)s4)CC3)cc2)CC1 [Compound 5309189],14.2,
O=C(NCc1ccco1)c1c2c(nc3ccccc13)CCC2 [Compound 862194],15.2,
COc1ccc(C(=O)Nc2ccc(N3CCCC3)cc2)cc1 [Compound 960708],101,
CCOc1ccc(C(=O)Nc2ccc(N3CCCC3)cc2)cc1 [Compound 650825],9.86,
CC(=O)NC(=S)Nc1ccc(-c2nc3ccc(C)cc3s2)cc1 [Compound 1226649],8.47,
Cc1ccc2nc3sc(C(=O)Nc4ccc(N5CCOCC5)cc4)c(N)c3cc2c1 [Compound 1442651],10.8,
COC(=O)c1c(NC(=O)CN2CCC3(O)CCCCC3C2c2ccc(OC)cc2OC)sc(C)c1C (centres unmarked) [Compound 4971819],60.2,
CC(C)c1nnc(NC(=O)c2c(O)c3cccc4c3n(c2=O)CCC4)s1 [Compound 54680928],16.1,
N#Cc1ccsc1NC(=O)CSc1ncnc2ccccc12 [Compound 2369720],11.3,
O=C1NC(=O)N(c2ccc(F)cc2)C(=O)/C1=C/c1ccc2c(c1)CCCN2Cc1ccccc1 [Compound 1997460],6.23,
O=C(N/N=C\c1ccc(-c2ccc([N+](=O)[O-])cc2)o1)c1ccc2c(c1)OCO2 [Compound 5497396],11.7,
NC(=O)c1cc(-c2ccccc2)sc1NC(=O)Cc1ccc(S(=O)(=O)N2CCOCC2)s1 [Compound 2121076],19.4,
O=C(CSc1nnc2c3ccccc3c3ccccc3c2n1)Nc1ccccc1F [Compound 6402388],11.2,
COc1ccc(-n2c(C)cc(C(=O)COC(=O)c3cc(NC(=O)c4cccs4)c(OC)c(OC)c3)c2C)cc1 [Compound 2108710],62.5,
C=CCN(CC=C)S(=O)(=O)c1ccc(C(=O)Nc2sc3c(c2C(N)=O)CCCCC3)cc1 [Compound 3395368],8.78,
